Assay results: article PMC9329268 (Angewandte Chemie (International ed. in English), 2022)
pIC50: −log10 of the molar value. Values after ≈ are worked out from the molar mass of the structure shown.

What was measured:
Water-solubility = assay type: physicochemical
[1] = test system: Mycobacterium tuberculosis (H37Rv); experiment: Antibacterial activity; assay type: cell-based
[2] = test system: Bacillus cereus (ATCC1479); experiment: Antibacterial activity; assay type: cell-based
[3] = test system: Mycobacterium smegmatis (ATCC607); experiment: Antibacterial activity; assay type: cell-based
AglH = target: T1, AglH (Methanocaldococcus jannaschii, UniProt Q58513); assay type: biochemical; details: read-out: IC50 AglH; Methanococcus jannaschii enzyme; n = 3
T1 sequence (Q58513 1-301): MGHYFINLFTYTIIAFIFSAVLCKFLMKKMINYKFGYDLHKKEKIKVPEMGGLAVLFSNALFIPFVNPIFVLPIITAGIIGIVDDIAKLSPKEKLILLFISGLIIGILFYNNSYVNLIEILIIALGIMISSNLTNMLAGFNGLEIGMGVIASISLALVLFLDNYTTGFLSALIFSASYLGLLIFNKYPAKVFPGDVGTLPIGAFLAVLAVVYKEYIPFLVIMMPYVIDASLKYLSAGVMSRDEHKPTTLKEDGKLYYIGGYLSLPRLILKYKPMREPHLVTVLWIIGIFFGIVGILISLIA

[4] = test system: Streptococcus salivarius (ATCC7752); experiment: Antibacterial activity; assay type: cell-based
[5] = test system: healthy (normal) and cancer cell lines; details: read-out: IC50 (rapid cytotoxic activity); within 24 h; ref 4a; cited from earlier work
[6] = target: T2, human dolichyl-phosphate N-acetylglucosaminephosphotransferase 1 (DPAGT1) (Homo sapiens, UniProt Q9H3H5); assay type: biochemical; details: read-out: IC50 DPAGT1; Human enzyme; n = 3
T2 sequence (Q9H3H5 1-408): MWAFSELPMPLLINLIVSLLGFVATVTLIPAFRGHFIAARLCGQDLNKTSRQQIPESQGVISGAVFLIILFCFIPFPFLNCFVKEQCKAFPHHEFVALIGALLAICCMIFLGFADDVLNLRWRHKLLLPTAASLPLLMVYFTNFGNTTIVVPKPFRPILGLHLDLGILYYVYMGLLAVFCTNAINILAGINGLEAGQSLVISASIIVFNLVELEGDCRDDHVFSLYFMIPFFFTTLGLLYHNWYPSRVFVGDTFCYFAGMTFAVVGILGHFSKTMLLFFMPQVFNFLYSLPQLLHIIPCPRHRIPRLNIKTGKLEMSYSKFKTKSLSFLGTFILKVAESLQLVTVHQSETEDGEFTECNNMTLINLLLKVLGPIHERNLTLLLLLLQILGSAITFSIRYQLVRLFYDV

MraY = details: read-out: IC50 MraY

| Compound | solubility (Water-solubility) | MIC [1] | MIC [2] | MIC [3] | pIC50 (AglH) | MIC [4] | pIC50 [5] | pIC50 [6] | pIC50 (MraY) |
| --- | --- | --- | --- | --- | --- | --- | --- | --- | --- |
| CC(=O)N[C@H]1[C@@H](O[C@@H]2O[C@H](C[C@@H](O)[C@H]3O[C@@H](n4ccc(=O)[nH]c4=O)[C@H](O)[C@@H]3O)[C@H](O)[C@H](O)[C@H]2NC(=O)/C=C/CCCCCCCCCC(C)C)O[C@H](CO)[C@@H](O)[C@@H]1O [TN-V (1, synthetic), tunicamycin V] | < 200 µg/mL | 6.3 µg/mL (≈ 7.58 µM) | 0.4 µg/mL (≈ 0.481 µM) | 6.3 µg/mL (≈ 7.58 µM) | 4.89 | 25.0 µg/mL (≈ 30.1 µM) | 5.60 to 6.30 | 5.82 | 5.60 |
| CC(=O)N[C@H]1[C@@H](O[C@@H]2O[C@H](C[C@@H](O)[C@H]3O[C@@H](n4ccc(=O)[nH]c4=O)[C@H](O)[C@@H]3O)[C@H](O)[C@H](O)[C@H]2NC(=O)/C=C/CCCCCCCCCC(C)C)O[C@H](CO)[C@@H](O)[C@@H]1O [TN-V (natural), tunicamycin V, reference compound] | – | – | – | – | 4.88 | – | – | 5.82 | 5.54 |
